Values after ≈ are worked out from the molar mass of the structure shown. Read-outs that look alike come from different tables or passages of the source.
Columns and labels:
M. marinum ATCC 927 = experiment: Broth microdilution MIC, M. marinum ATCC 927; assay type: cell-based
M. chelonei C315 = experiment: Broth microdilution MIC, M. chelonei C315; assay type: cell-based; conditions: for MIC50: as worded in conclusions, single strain
[1] = human, in vivo, cited from earlier work
M. tuberculosis [2] = conditions: 79 strains susceptible to conventional drug therapy; cited from earlier work
M. avium = experiment: Broth microdilution MIC, M. avium isolates; assay type: cell-based; conditions: 11 strains, 7 days incubation, 7H9 broth
M. kansasii = experiment: Broth microdilution MIC, M. kansasii isolates; assay type: cell-based; conditions: 10 strains, 7 days incubation, 7H9 broth
M. tuberculosis [3] = experiment: Broth microdilution MIC, M. tuberculosis isolates; assay type: cell-based; conditions: 12 strains, 14 days incubation, 7H9 broth
β-adrenergic = conditions: L-form vs D-enantiomer; cited from earlier work
[4] = 1 strain, 7 days incubation at 30° C., 7H9 broth
[5] = as worded in conclusions, single strain
[6] = 1 strain, 4 days incubation, 7H9 broth

Row | SMILES | Susceptibility, Range (M. avium) [µg/mL] | Susceptibility, MIC90 (M. kansasii) [µg/mL] | Susceptibility, Range (M. kansasii) [µg/mL] | Susceptibility, Range (M. tuberculosis [3]) [µg/mL] | Susceptibility, MIC (M. marinum ATCC 927; [4]) [µg/mL] | MIC (M. marinum ATCC 927; [5]) [µg/mL] | Susceptibility, MIC (M. chelonei C315; [6]) [µg/mL] | MIC50 (M. chelonei C315) [µg/mL] | Susceptibility, MIC50 (M. avium) [µg/mL] | Susceptibility, MIC90 (M. avium) [µg/mL] | Susceptibility, MIC50 (M. kansasii) [µg/mL] | Susceptibility, MIC50 (M. tuberculosis [3]) [µg/mL] | further results
1 | CCn1cc(C(=O)O)c(=O)c2cc(F)c(N3CCNC(C)C3)c(F)c21 (racemic) [LM, 1-ethyl-6,8-difluoro-1,4-dihydro-7-(3-methyl-lpiperazinyl)-4-oxo-3-quinolinecarboxylic acid] | 4 to 16 | 2.0 | 1 to 2 | 0.5 to 2 | – | – | – | – | – | – | – | – | MIC (M. marinum ATCC 927; Mycobacterium marinum, ATCC927, 168 h, 1 strain, 7 days incubation at 30° C., 7H9 broth, read-out: Susceptibility, MIC): 4 µg/mL (≈ 11.4 µM); MIC50 (M. marinum ATCC 927; Mycobacterium marinum, ATCC927, as worded in conclusions, single strain): 4 µg/mL (≈ 11.4 µM); MIC (M. chelonei C315; Mycobacteroides abscessus, C315, 96 h, 1 strain, 4 days incubation, 7H9 broth, read-out: Susceptibility, MIC): 4 µg/mL (≈ 11.4 µM); MIC50 (M. chelonei C315; Mycobacteroides abscessus, C315, read-out: MIC50): 4 µg/mL (≈ 11.4 µM); average elimination half-life ([1]; po): approximately 8 hours; prolongation of the half-life [1]: up to 24 hours; MIC50 (M. tuberculosis [2]): 0.96 µg/mL (≈ 2.73 µM); MIC90 (M. tuberculosis [2]): 1.02 µg/mL (≈ 2.9 µM); MIC50 (M. avium; Mycobacterium avium, 168 h, read-out: Susceptibility, MIC50): 8 µg/mL (≈ 22.8 µM); MIC90 (M. avium; Mycobacterium avium, 168 h, read-out: Susceptibility, MIC90): 16 µg/mL (≈ 45.5 µM); MIC50 (M. kansasii; Mycobacterium kansasii, 168 h, read-out: Susceptibility, MIC50): 1 µg/mL (≈ 2.85 µM); MIC90 (M. kansasii; Mycobacterium kansasii, 168 h, read-out: Susceptibility, MIC90): 2 µg/mL (≈ 5.69 µM); MIC50 (M. tuberculosis [3]; Mycobacterium tuberculosis, 336 h, read-out: Susceptibility, MIC50): 1 µg/mL (≈ 2.85 µM); MIC90 (M. tuberculosis [3]; Mycobacterium tuberculosis, 336 h, read-out: Susceptibility, MIC90): 2 µg/mL (≈ 5.69 µM)
2 | CC(C)NC[C@H](O)COc1cccc2ccccc12 [L-form of propranolol, propranolol] | – | – | – | – | – | – | – | – | – | – | – | – | potency relative to the D-enantiomer (β-adrenergic): 100 times
3 | CCn1cc(C(=O)O)c(=O)c2cc(F)c(N3CCN[C@H](C)C3)c(F)c21 [R-LM, (R)-lomefloxacin] | 4 to 32 | 4 | 2 to 4 | 1 to 4 | 4 | 4.0 (≈ 11.4 µM) | 4 | 4.0 (≈ 11.4 µM) | 16 | 32 | 2 | 2 | Susceptibility, MIC90 (M. kansasii; listed as (R)-LM): 4.0 µg/mL; Susceptibility, MIC90 (M. tuberculosis [3]): 4 µg/mL
4 | CCn1cc(C(=O)O)c(=O)c2cc(F)c(N3CCN[C@@H](C)C3)c(F)c21 [S-LM, (S)-lomefloxacin] | 2 to 16 | 2 | 1 to 2 | 0.25 to 1 | 2 | 2.0 (≈ 5.69 µM) | 2 | 2.0 (≈ 5.69 µM) | 8 | 16 | 1 | 0.5 | Susceptibility, MIC90 (M. kansasii; listed as (S)-LM): 2.0 µg/mL

— patent US6534508B2, “Methods and compositions for treating infection using optically pure (S)-lomefloxacin” (priority 1991, dated 2003)
